Values quoted from earlier work as cited in patent US20100022576A1 (priority 2006, published 2010).

How the values were obtained:
human mast cells = settings: in vitro
[1] = in vivo

For `Clc1ccc2c(c1)CCc1cccnc1C2=C1CCNCC1` [desloratadine], the “Release of histamine from human mast cells” value (human mast cells) is given as “inhibits release of histamine from human mast cells” and the “Effect of food and grapefruit juice on bioavailability” value [1] is given as “Neither food nor grapefruit juice has an effect”.
